Legend:
Format in all cases: cell-based, human
[1] = tested on: AAV transgene expression (firefly luciferase); test: AAV regulation with first generation CEM, dual luciferase assay, HEK293T Renilla; details: FIG. 12, 50, 200, 500, 1000 nM
Text: (§1) It was investigated whether rAAV transgene expression can be epigenetically controlled. Rapid screening of CEM technology can be performed with dual liucierase assays. (FIG. 10). Briefly, a cell line can be stably transduced with Ef1a-Renilla, enabling normalization to cell number. The cells are then either infected with AAV or tranfected with plasmid and dosed with a chemical epigenetic modifier. Luminescence can then be measured with the Dual Lucieferase Reporter, commercially available from Promega. This approach is described in more detail in the methods section of the example. Gene activation can be described as normalized luciferase or fold change. A measure of total gene expression can be calculated by
(§2) Preliminary regulation of AAV with first generation CEMs is depicted in FIG. 11A. The prototype system is autogenous, saving casssette space. (FIG. 11B). […] Preliminary regulation of AAV with first generation CEMs in HEK293T Renilla cells using the cassette in FIG. 11B results are shown in FIG. 13, with multiplicity of infection (MOI)=number of viral genomes/cell.

[2] = tested on: AAV transgene expression (firefly luciferase); test: AAV regulation with first generation CEM, dual luciferase assay, HCT116 Renilla; details: FIG. 12, 50, 200, 500, 1000 nM
Text: as §1, §2

[3] = tested on: HEK293T cells; test: alamarBlue cell viability assay, HEK293T
Description: (§3) FIGS. 8A-8B show alamarBlue cell viability assays. HEK293T or HCT116 cells were plated in 96-well plates 24 hrs before chemical treatment of 0.001, 0.01, 0.1, 1, 10, 50, and 100 μM CEM207 was added. Another group of cells were treated with all concentrations of CEM207 mentioned above along with 200 nM CEM87 in all samples. After 4 days of chemical exposure, cell growth was measured by fluorescence. […] HCT116 cells were stably infected with dCas9 and MS2-FKBP*x2 constructs and transfected with CXCR4 gRNA. After 24 hrs of 25 nM CEM207 treatment, ChIP-qPCR was performed at different base pair distances from the transcription start site of CXCR4 gene. […] Error bars represent the standard deviation.
(§4) AlamarBlue cell viability assay. HEK293T or HCT116 cells were placed in black 96-well plates with clear bottom. 24 hrs later, media was exchanged to include 0.001, 0.01, 0.1, 1, 10, 50, 100 μM concentrations of CEM207, or all CEM207 concentrations above along with 200 nM CEM87. After 4 days of chemical exposure, alamarBlue Cell Viability Reagent (Invitrogen, DAL1025) was added to each well. Cells were incubated at 37° C. for 4 hrs and fluorescence was read using the TECAN Infinite F200 Fluorescence Microplate Reader. IC50 values were calculated using GraphPad Prism 9.

[4] = tested on: rAAV2 transgene expression (firefly luciferase); test: rAAV2 SLF* CEM system dual luciferase assay, HEK293T Renilla, multiplicity of infection; details: FIGS. 14B and 14C; 0, 10 or 100 nM CEM207; increasing vg/cell
Text: as §1
Next, it was determined whether SLF*CEMs can regulate AAV. The cassette shown in FIG. 14A was inserted into rAAV2 and infected into HEK293T Renilla. […] Next, it was explored whether the cassette was truly modular by varying the promoter while retaining SLF* CEM successful activation of rAAV2. […]
Day 4 (72 h): Data was obtained using the Promega Dula Luciferase Reporter (DLR) assay: first, the cells were washed with 100 μL of PBS/well dropwise followed by 20 μL of 1× passive lysis buffer (PLB) added to each well. The cells were incubated for 15 minutes in PLB and the assay ran on pheraSTAR microplate reader with 100 μL of each DLR reagent, gain=3600.

[5] = tested on: HCT116 cells; test: alamarBlue cell viability assay, HCT116
Description: as §3, §4

[6] = tested on: CXCR4 protein; test: CXCR4 cell membrane protein expression in HCT116 (APC anti-CXCR4 antibody, flow cytometry); details: for fold change, CXCR4 protein (CXCR4 gRNA vs NT gRNA): FIG. 3E, 7B-7D
Description: In addition, the change in CXCR4 protein expression was evaluated following CEM207 treatment at three different concentrations. CEM207 was chosen over CEM203 because of the lower concentration needed to reach a similar peak CXCR4 mRNA activation level. An APC anti-CXCR4 antibody was used to assess cell membrane CXCR4 protein expression via flow cytometry in dCas9 and MS2-FKBP*x2 stably infected HCT116 cells (FIG. 3E and FIGS. 7B-7D). CXCR4 protein levels were determined at 24, 48, and 72 hrs time points for each of the different concentrations of CEM207. […] Based on this protein expression data, it was concluded that the SLF*-CEMa technology can achieve effective gene-specific, dose-dependent activation at the mRNA and protein level.

Compound	luminescence, fold change compared to no treatment [1]	luminescence, fold change compared to no treatment [2]	IC50 ([3]; CEM207 treatment alone, 4 days of exposure)	IC50 ([3]; treated simultaneously with 200 nM CEM87, 4 days of exposure)	activation of rAAV2 luciferase expression with viral titer escalation [4]	IC50 ([5]; CEM207 alone, 4 days of exposure)	IC50 ([5]; CEM207 in the background of 200 nM CEM87, 4 days of exposure)	time after CEM treatment of highest CXCR4 protein expression ([6]; 24, 48, 72 hrs time points)	fold change, CXCR4 protein (CXCR4 gRNA vs NT gRNA) ([6]; 24 h time point, 5 nM)	fold change, CXCR4 protein (CXCR4 gRNA vs NT gRNA) ([6]; 24 h time point, 25 nM)	fold change, CXCR4 protein (CXCR4 gRNA vs NT gRNA) ([6]; 24 h time point, 50 nM)	fold change, CXCR4 protein (CXCR4 gRNA vs NT gRNA) ([6]; 48 h time point, 5 nM)	fold change, CXCR4 protein (CXCR4 gRNA vs NT gRNA) ([6]; 48 h time point, 25 nM)	fold change, CXCR4 protein (CXCR4 gRNA vs NT gRNA) ([6]; 48 h time point, 50 nM)	fold change, CXCR4 protein (CXCR4 gRNA vs NT gRNA) ([6]; 72 h time point, 5 nM)	fold change, CXCR4 protein (CXCR4 gRNA vs NT gRNA) ([6]; 72 h time point, 25 nM)	fold change, CXCR4 protein (CXCR4 gRNA vs NT gRNA) ([6]; 72 h time point, 50 nM)	concentration of maximum CXCR4 cell membrane protein expression ([6]; remained the same at 50 nM)
COc1ccc2c(c1)C(c1ccc(Cl)cc1)=N[C@@H](CC(=O)NCc1cn(CCOCCOCCOCCNC(=O)CCSCCC[C@@H]3/C=C(\C)C[C@H](C)C[C@H](OC)[C@H]4O[C@@](O)(C(=O)C(=O)N5CCCC[C@H]5C(=O)O[C@H](/C(C)=C/[C@@H]5CC[C@@H](O)[C@H](OC)C5)[C@H](C)[C@@H](O)CC3=O)[C@H](C)C[C@@H]4OC)nn1)c1nnc(C)n1-2 [CEM87, reference compound]	dose dependent increase in luminscence	dose dependent increase in luminscence																
CC[C@H](C(=O)N1CCCC[C@H]1C(=O)O[C@H](CCc1ccc(OC)c(OC)c1)c1cccc(OCC(=O)NCCOCCOCCNC(=O)C[C@@H]2N=C(c3ccc(Cl)cc3)c3c(sc(C)c3C)-n3c(C)nnc32)c1)c1cc(OC)c(OC)c(OC)c1 [CEM207, (R)-1-(3-((14-((S)-4-(4-Chlorophenyl)-2,3,9-trimethyl-6H-thieno[3,2-f][1,2,4]triazolo[4,3-a][1,4]diazepin-6-yl)-2,13-dioxo-6,9-dioxa-3,12-diazatetradecyl)oxy)phenyl)-3-(3,4-dimethoxyphenyl) propyl(S)-1-((S)-2-(3,4,5-trimethoxyphenyl)butanoyl) piperidine-2-carboxylate]			106 nM	78.6 nM	compatible with viral titer escalation	870 nM	359 nM	48 h	2.4 fold	4.6 fold	4.3 fold	2.4 fold	4.9 fold	5.8 fold	1.7 fold	4.2 fold	3.8 fold	25 nM
